From the Kinase Knowledgebase extract (Sharma et al. 2016)

Molecular target: EGFR (UniProt P00533)
Conditions: for inhibition: concentration not given here

Sequence of EGFR (P00533 whole entry, looked up): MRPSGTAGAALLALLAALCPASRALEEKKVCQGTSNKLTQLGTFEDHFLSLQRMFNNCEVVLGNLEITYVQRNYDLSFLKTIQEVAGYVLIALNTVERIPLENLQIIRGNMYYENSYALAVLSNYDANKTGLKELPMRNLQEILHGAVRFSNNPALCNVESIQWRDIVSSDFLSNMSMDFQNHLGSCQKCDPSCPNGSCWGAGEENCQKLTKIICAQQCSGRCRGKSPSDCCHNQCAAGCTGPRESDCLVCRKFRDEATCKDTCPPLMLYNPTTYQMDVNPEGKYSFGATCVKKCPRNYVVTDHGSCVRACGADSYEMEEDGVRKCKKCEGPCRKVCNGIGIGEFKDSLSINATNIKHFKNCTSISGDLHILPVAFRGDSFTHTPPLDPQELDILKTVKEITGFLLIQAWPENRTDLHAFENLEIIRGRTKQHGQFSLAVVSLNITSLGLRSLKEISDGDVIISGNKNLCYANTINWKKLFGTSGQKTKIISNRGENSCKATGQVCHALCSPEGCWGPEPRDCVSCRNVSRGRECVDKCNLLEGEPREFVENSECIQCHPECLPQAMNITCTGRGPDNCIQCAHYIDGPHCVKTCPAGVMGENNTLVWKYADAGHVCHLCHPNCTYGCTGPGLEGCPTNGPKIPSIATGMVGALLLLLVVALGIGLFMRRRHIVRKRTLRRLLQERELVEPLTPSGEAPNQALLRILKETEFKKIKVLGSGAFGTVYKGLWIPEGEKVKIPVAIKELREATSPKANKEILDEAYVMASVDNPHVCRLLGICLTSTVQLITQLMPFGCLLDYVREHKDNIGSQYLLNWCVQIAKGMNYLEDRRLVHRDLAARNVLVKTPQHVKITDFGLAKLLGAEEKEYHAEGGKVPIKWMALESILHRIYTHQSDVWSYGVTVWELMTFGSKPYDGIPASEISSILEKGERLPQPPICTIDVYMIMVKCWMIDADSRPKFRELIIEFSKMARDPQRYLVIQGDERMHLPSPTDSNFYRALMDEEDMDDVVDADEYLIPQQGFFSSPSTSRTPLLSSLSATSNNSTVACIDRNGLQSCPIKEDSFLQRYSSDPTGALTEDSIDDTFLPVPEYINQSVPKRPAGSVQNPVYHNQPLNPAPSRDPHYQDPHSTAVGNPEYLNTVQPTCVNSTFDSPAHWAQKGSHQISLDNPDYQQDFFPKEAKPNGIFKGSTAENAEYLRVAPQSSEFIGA

SMILES	IC50 [µM]	inhibition [%]
O=c1ccc2ccc(O)c(O)c2o1	7.67	99.6
O=c1cc(O)c2ccccc2o1		0

The remaining lines, values ahead:

IC50 [µM]	inhibition [%]	SMILES
	0	O=c1ccc2ccc(O)cc2o1
	0	OC1C=Cc2ccccc2O1 (configuration not stated)
	0	O=c1ccc2ccccc2o1
	0	O=c1ccc2cc(O)c(O)cc2o1
